Data published in ChEMBL document CHEMBL1135240, “Benzene fused monocyclic enediynyl amides: synthesis, reactivity and DNA-cleavage activity in comparison to the corresponding sulfonamides” (Bioorg Med Chem Lett, 2002).

Tests used:
[1] = The compound was evaluated for rate constant at 70 deg. C; assay type: ADME
[2] = The compound was evaluated for half life at 70 deg. C; assay type: ADME

Rate constant [1] [h⁻¹] | half-life [2] [h] | Structure (SMILES)
0.0051 | 136 | O=C(c1ccc([N+](=O)[O-])cc1)N1CC#Cc2ccccc2C#CCC1
0.0143 | 49 | O=[N+]([O-])c1ccc(S(=O)(=O)N2CC#Cc3ccccc3C#CCC2)cc1
0.0037 | 188 | O=C(c1ccccc1)N1CC#Cc2ccccc2C#CCC1
0.0244 | 28 | O=[N+]([O-])c1ccc(S(=O)(=O)N2CC#Cc3ccccc3C#CCC2)c([N+](=O)[O-])c1
